Several values for one entry are separate records, joined by “and”; a condition that tells them apart may be missing. Equal values may be shown once.
Target: Gag-Pol polyprotein (Human immunodeficiency virus type 1 group M subtype B (isolate HXB2), UniProt P04585)
Assay: Inhibition Assay
Excerpt: Inhibition assay using HIV-1 integrase.

Row | IC50 | Compound
1 | 3640 nM | NCC1CC1 [Integrase inhibitor, R3{1}]
2 | 50 nM and 39 nM | O=C(NCc1ccc(Cl)c(Cl)c1)C1C(=O)C(=O)N(CC2CC2)C1c1cccc2c1OCO2 (centres undefined) [Integrase inhibitor, 2{1,1,1}]
3 | 3920 nM | COc1ccc(CN)cc1
4 | 12000 nM and 10300 nM | COc1ccc(CNC(=O)C2C(=O)C(=O)N(CC3CC3)C2c2ccccc2C(F)(F)F)cc1 (centres undefined) [Integrase inhibitor, 2{3,5,1}]
5 | 4130 nM | CCOCCN [Integrase inhibitor, R3{5}]
6 | 1840 nM | CC(=O)N[C@H](CCCCN)C(=O)O [Integrase inhibitor, R3{2}]
7 | 7860 nM | O=Cc1ccccc1C(F)(F)F [Integrase inhibitor, R2{5}]
8 | 3050 nM | O=Cc1cccc2c1OCO2 [Integrase inhibitor, R2{1}]
9 | 57 nM and 26 nM | CCOc1ccccc1C1C(C(=O)NCc2ccc(Cl)c(Cl)c2)C(=O)C(=O)N1CCCCC(NC(C)=O)C(=O)O (centres undefined) [Integrase inhibitor, 2{1,2,2}]
10 | 2030 nM | O=Cc1ccccc1OCC(=O)O [Integrase inhibitor, R2{3}]
11 | 1020 nM | CCOc1ccccc1C=O [Integrase inhibitor, R2{2}]
12 | 2110 nM | CCOCCCN [Integrase inhibitor, R3{4}]
13 | 1340 nM | NCc1ccc(Cl)c(Cl)c1 [Integrase inhibitor, R1{1}]
14 | 1750 nM | O=Cc1ccccc1OCc1ccccc1 [Integrase inhibitor, R2{4}]
15 | 4050 nM | NCc1ccc(F)cc1 [Integrase inhibitor, R1{2}]
16 | 67 nM and 29 nM | CC(=O)NC(CCCCN1C(=O)C(=O)C(C(=O)NCc2ccc(Cl)c(Cl)c2)C1c1cccc2c1OCO2)C(=O)O (centres undefined) [Integrase inhibitor, 2{1,1,2}]
17 | 90 nM and 80 nM | CCOCCCN1C(=O)C(=O)C(C(=O)NCc2ccc(Cl)c(Cl)c2)C1c1ccccc1Oc1ccccc1 (centres undefined) [Integrase inhibitor, 2{1,4,4}]

Row | Compound | IC50
18 | NCc1cc(Cl)cc(Cl)c1 [Integrase inhibitor, R1{4}] | 2470 nM
19 | CN [Integrase inhibitor, R3{3}] | 2700 nM
